Measurements reported in patent publication US11820773B2, “Tricyclic compounds” (ALIGOS THERAPEUTICS, INC., priority 2020, dated 2023).
Structures can show the parent of a compound that is named as a salt.

test system: HBV; assay: HBV-DNA antiviral assay using HepG2.117 cells (intracellular HBV DNA by qPCR); format: cell-based, genotype D HBV; details: HBV DNA inhibition, 3 days incubation, 2% DMSO
Description: The following assay procedure describes the HBV antiviral assay, using HepG2.117 cells, which carry a stably integrated genotype D HBV genome under the control of a Tet-off promoter, and intracellular HBV DNA quantification as endpoint. Cell viability is assessed in parallel by measuring the intracellular ATP content using CellTiter-Glo 2.0 (Promega).
On day 0, HepG2.117 cells (which are maintained in routine cell culture with doxycycline present in the medium at a final concentration of 1 μg/mL) were seeded in 96-well plates (white with clear bottom) at a density of 2.0×10^4 cells/well (0.1 mL/well) in medium without doxycycline to induce pgRNA transcription and subsequent formation of HBV particles. The cells were incubated at 37° C. and 5% CO2.
On day 1, medium was removed from each well, the test articles were diluted in culture medium without doxcycyline and 100 μL was added to cell culture wells (9 concentrations, 4-fold dilution). For each plate, 6 untreated (merely DMSO) wells were included. The final concentration of DMSO in the culture medium was 2%. Each plate was prepared in duplicate (one for HBV DNA extraction, one for CellTiter-Glo 2.0 measurement). The cells were incubated at 37° C. and 5% CO2 for 3 days.
On day 4, cell viability was assessed using CellTiter-Glo 2.0 and cell lysates were prepared for HBV DNA extraction and subsequent quantification by qPCR.
HBV DNA Quantification by qPCR
Medium was removed from each well and 100 μL of 0.33% NP-40 in H2O was added to each well. Plates were sealed, incubated at 4° C. for 5 mins, vortexed extensively and centrifuged briefly. Next, 35 μL of lysate was added to 65 μL QuickExtract DNA Extraction Solution (Epicentre) in a PCR plate for each well. PCR plate was incubated at 65° C. for 6 mins, 98° C. for 2 mins and finally cooled to 4° C. HBV DNA was then quantified by qPCR with HBV-specific primers and probes as specified in Table 1 using the Bio-Rad SSOAdvanced Universal Probes Supermix on a CFX96 machine (Bio-Rad). The PCR cycle program consisted of 95° C. for 3 mins, followed by 40 cycles at 95° C. for 10 sec and 60° C. for 30 sec.
A DNA standard was prepared by dilution of an IDT gBlock corresponding to the amplicon with concentrations ranging from 10^2 to 10^8 copies/input (i.e. per 4 μL) and used to generate a standard curve by plotting Cq values vs. HBV DNA standard concentration. The quantity of HBV DNA in each sample was determined by interpolating from the standard curve.
Cell viability was calculated as follows: % Cell viability=(luminescence value of test sample)/(average luminescence value of 2% DMSO control)×100%. HBV DNA inhibition was calculated as follows: 100−(HBV DNA copy number of test sample)/(average HBV DNA copy number of 2% DMSO control)×100%. No normalization to entecavir was required due to the excellent dynamic window of this assay. The CC50, EC50 and EC90 values were determined by dose-response curves fitted by GraphPad Prism using “log (agonist) vs. response—Variable slope”.

SMILES | EC50
CNC(=O)c1ccc(-n2c(=O)c3c(n4ncc(CC5CC5)c24)CN(C(=O)c2ccc(Br)c(C(F)(F)F)c2)C(C)C3)cc1 (racemic) [Compound 21a, N-methyl-4-[rac-(11R)-12-[4-bromo-3-(trifluoromethyl)benzoyl]-5-(cyclopropylmethyl)-11-methyl-8-oxo-2,3,7,12-tetrazatricyclo[7.4.0.0^2,6]trideca-1(9),3,5-trien-7-yl]benzamide] | < 50 nM
CNC(=O)c1ccc(-n2c(=O)c3c(n4ncc(CC5CC5)c24)CN(C(=O)c2ccc(Br)c(C(F)(F)F)c2)C(C)C3)cc1 (racemic) [Compound 21b, N-methyl-4-[rac-(11S)-12-[4-bromo-3-(trifluoromethyl)benzoyl]-5-(cyclopropylmethyl)-11-methyl-8-oxo-2,3,7,12-tetrazatricyclo[7.4.0.0^2,6]trideca-1(9),3,5-trien-7-yl]benzamide] | 50 to 500 nM

same assay, conditions: Hepatitis B virus, 72 h, HBV DNA inhibition, 3 days incubation, 2% DMSO

SMILES | EC50
CC(C)[C@@H](N)C(=O)OCN(C)C(=O)c1ccc(-n2c(=O)c3c(n4ncc(CC5CC5)c24)CN(C(=O)c2ccc(Br)c(C(F)(F)F)c2)[C@@H](C)C3)cc1 (racemic) [Compound 96, [[4-[(11SR)-12-[4-bromo-3-(trifluoromethyl)benzoyl]-5-(cyclopropylmethyl)-11-methyl-8-oxo-2,3,7,12-tetrazatricyclo[7.4.0.0^2,6]trideca-1(9),3,5-trien-7-yl]benzoyl]-methyl-amino]methyl (2R)-2-amino-3-methyl-butanoate; hydrochloride] | 500 to 5000 nM
C[C@H]1Cc2c(n3ncc(CC4CC4)c3n(-c3ccc(C(=O)N(C)COC(=O)CN)cc3)c2=O)CN1C(=O)c1ccc(Br)c(C(F)(F)F)c1 (racemic) [Compound 97, [methyl-[4-[rac-(11S)-12-[4-bromo-3-(trifluoromethyl)benzoyl]-5-(cyclopropylmethyl)-11-methyl-8-oxo-2,3,7,12-tetrazatricyclo[7.4.0.0^2,6]trideca-1(9),3,5-trien-7-yl]benzoyl]amino]methyl 2-aminoacetate] | > 5000 nM
COP(=O)(OC)OCN(C)C(=O)c1ccc(-n2c(=O)c3c(n4ncc(CC5CC5)c24)CN(C(=O)c2ccc(Br)c(C(F)(F)F)c2)[C@@H](C)C3)cc1 (racemic) [Compound 103, Dimethyl [methyl-[4-[rac-(11S)-12-[4-bromo-3-(trifluoromethyl)benzoyl]-5-(cyclopropylmethyl)-11-methyl-8-oxo-2,3,7,12-tetrazatricyclo[7.4.0.0^2,6]trideca-1(9),3,5-trien-7-yl]benzoyl]amino]methyl Phosphate] | > 5000 nM
COP(=O)(O)OCN(C)C(=O)c1ccc(-n2c(=O)c3c(n4ncc(CC5CC5)c24)CN(C(=O)c2ccc(Br)c(C(F)(F)F)c2)[C@@H](C)C3)cc1 (racemic) [Compound 107, Methyl [methyl-[4-[rac-(11S)-12-[4-bromo-3-(trifluoromethyl)benzoyl]-5-(cyclopropylmethyl)-11-methyl-8-oxo-2,3,7,12-tetrazatricyclo[7.4.0.0^2,6]trideca-1(9),3,5-trien-7-yl]benzoyl]amino]methyl Hydrogen Phosphate] | > 5000 nM
CNC(=O)c1ccc(-n2c(=O)c3c(n4ncc(CC5CC5)c24)CN(C(=O)c2ccc(Br)c(Cl)c2)[C@H](C)C3)cc1 (stereo in doubt) [Compound 22a, N-methyl-4-[rac-(11R)-12-[4-bromo-3-chlorobenzoyl]-5-(cyclopropylmethyl)-11-methyl-8-oxo-2,3,7,12-tetrazatricyclo[7.4.0.0^2,6]trideca-1(9),3,5-trien-7-yl]benzamide] | < 50 nM
CNC(=O)c1ccc(-n2c(=O)c3c(n4ncc(CC5CC5)c24)CN(C(=O)c2ccc(Br)c(Cl)c2)[C@@H](C)C3)cc1 (stereo in doubt) [Compound 22b, N-methyl-4-[rac-(11S)-12-[4-bromo-3-chlorobenzoyl]-5-(cyclopropylmethyl)-11-methyl-8-oxo-2,3,7,12-tetrazatricyclo[7.4.0.0^2,6]trideca-1(9),3,5-trien-7-yl]benzamide] | < 50 nM
CNC(=O)c1ccc(-n2c(=O)c3c(n4ncc(CC5CCC5)c24)CN(C(=O)c2ccc(Br)c(C(F)(F)F)c2)[C@H](C)C3)cc1 (stereo in doubt) [Compound 37a, N-methyl-4-[rac-(11R)-12-[4-bromo-3-(trifluoromethyl)benzoyl]-5-(cyclobutylmethyl)-11-methyl-8-oxo-2,3,7,12-tetrazatricyclo[7.4.0.0^2,6]trideca-1(9),3,5-trien-7-yl]benzamide] | < 50 nM
CNC(=O)c1ccc(-n2c(=O)c3c(n4ncc(CC5CCC5)c24)CN(C(=O)c2ccc(Br)c(C(F)(F)F)c2)[C@@H](C)C3)cc1 (stereo in doubt) [Compound 37b, N-methyl-4-[rac-(11S)-12-[4-bromo-3-(trifluoromethyl)benzoyl]-5-(cyclobutylmethyl)-11-methyl-8-oxo-2,3,7,12-tetrazatricyclo[7.4.0.0^2,6]trideca-1(9),3,5-trien-7-yl]benzamide] | 50 to 500 nM
CNC(=O)c1ccc(-n2c(=O)c3c(n4ncc(Cc5ccccc5)c24)CN(C(=O)c2ccc(Br)c(C(F)(F)F)c2)[C@H](C)C3)cc1 (stereo in doubt) [Compound 38a, N-methyl-4-[rac-(11R)-5-benzyl-12-[4-bromo-3-(trifluoromethyl)benzoyl]-11-methyl-8-oxo-2,3,7,12-tetrazatricyclo[7.4.0.0^2,6]trideca-1(9),3,5-trien-7-yl]benzamide] | < 50 nM
CNC(=O)c1ccc(-n2c(=O)c3c(n4ncc(Cc5ccccc5)c24)CN(C(=O)c2ccc(Br)c(C(F)(F)F)c2)[C@@H](C)C3)cc1 (stereo in doubt) [Compound 38b, N-methyl-4-[rac-(11S)-5-benzyl-12-[4-bromo-3-(trifluoromethyl)benzoyl]-11-methyl-8-oxo-2,3,7,12-tetrazatricyclo[7.4.0.0^2,6]trideca-1(9),3,5-trien-7-yl]benzamide] | < 50 nM
C[C@@H]1Cc2c(n3ncc(Cc4ccccc4)c3n(-c3ccc(-c4nncn4C)cc3)c2=O)CN1C(=O)c1ccc(Br)c(C(F)(F)F)c1 (stereo in doubt) [Compound 39a, rac-(11R)-5-benzyl-12-[4-bromo-3-(trifluoromethyl)benzoyl]-11-methyl-7-[4-(4-methyl-1,2,4-triazol-3-yl)phenyl]-2,3,7,12-tetrazatricyclo[7.4.0.0^2,6]trideca-1(9),3,5-trien-8-one] | < 50 nM
C[C@H]1Cc2c(n3ncc(Cc4ccccc4)c3n(-c3ccc(-c4nncn4C)cc3)c2=O)CN1C(=O)c1ccc(Br)c(C(F)(F)F)c1 (stereo in doubt) [Compound 39b, rac-(11S)-5-benzyl-12-[4-bromo-3-(trifluoromethyl)benzoyl]-11-methyl-7-[4-(4-methyl-1,2,4-triazol-3-yl)phenyl]-2,3,7,12-tetrazatricyclo[7.4.0.0^2,6]trideca-1(9),3,5-trien-8-one] | 50 to 500 nM
C[C@@H]1Cc2c(n3ncc(CC4CC4)c3n(-c3ccc(-c4nncn4C)cc3)c2=O)CN1C(=O)c1ccc(Br)c(C(F)(F)F)c1 (stereo in doubt) [Compound 40a, rac-(11R)-12-[4-bromo-3-(trifluoromethyl)benzoyl]-5-(cyclopropylmethyl)-11-methyl-7-[4-(4-methyl-1,2,4-triazol-3-yl)phenyl]-2,3,7,12-tetrazatricyclo[7.4.0.0^2,6]trideca-1(9),3,5-trien-8-one] | < 50 nM
C[C@H]1Cc2c(n3ncc(CC4CC4)c3n(-c3ccc(-c4nncn4C)cc3)c2=O)CN1C(=O)c1ccc(Br)c(C(F)(F)F)c1 (stereo in doubt) [Compound 40b, rac-(11S)-12-[4-bromo-3-(trifluoromethyl)benzoyl]-5-(cyclopropylmethyl)-11-methyl-7-[4-(4-methyl-1,2,4-triazol-3-yl)phenyl]-2,3,7,12-tetrazatricyclo[7.4.0.0^2,6]trideca-1(9),3,5-trien-8-one] | 50 to 500 nM
